# Measurements taken from article PMC3034772 (Pharmaceutical research, 2010).
# “And” between values parts separate entries of the source, which are not always exact repeats. Identical values can stand only once. Like-named read-outs stand apart in the source and are kept apart here.
# Assays:
# [1] = Charge class Q, dominant calculated charge state at pH 7.4; format: physicochemical
# [2] = In combo PAMPA-BBB model, calculated log Po in situ
# [3] = PAMPA
# [4] = physchem; conditions: pKa
# [5] = cited from earlier work
# [6] = In situ brain perfusion permeability; conditions: from literature PS
# [7] = PAMPA; for Pm^7.4: pH 7.4
# [8] = cited from earlier work; remark: listed apart in the source
# [9] = cited from earlier work; remark: listed apart in the source
# [10] = In situ brain perfusion, individual literature values; conditions: from literature PS
# [11] = Double-Sink PAMPA; conditions: intrinsic permeability, Type DS, Double-Sink PAMPA data scaled to the 3 μL level
# [12] = in vivo
# [13] = in vivo; cited from earlier work
# [14] = mouse, in vivo
# [15] = physchem
# [16] = dominant calculated concentration fraction of the drug in a charge state
compound,measurement,setting,value
CN/C(=N/CCSCc1nc[nH]c1C)NC#N [Cimetidine],Q (charge class),[1]; [16],0
same,obs–calc (log Po^in situ),[2]; efflux inhibition bcrp(−/−),−0.4
same,obs–calc (log Po^in situ),[2]; efflux inhibition mdr1a(−/−),0.0
same,obs–calc (log Po^in situ),[2]; no efflux inhibition,−0.4 and −0.2
same,log PABL,[3],−4.62
same,log Po,[3],−6.40
same,Pm^7.4,[3]; pH 7.4,0.4
same,pKa,[4],6.13
same,PS,[5]; efflux inhibition bcrp(−/−),1 10^−4 mLg^−1s^−1
same,log PS,[5]; efflux inhibition bcrp(−/−),−4.08
same,log Po^in situ (obs),[6]; efflux inhibition bcrp(−/−),−5.95
O=c1c(O)c(-c2ccc(O)c(O)c2)oc2cc(O)cc(O)c12 [Quercetin],Q (charge class),[1]; [16],0
same,obs–calc (log Po^in situ),"[2]; difference observed minus calculated, external set, no efflux inhibition",−0.4
same,obs–calc (log Po^in situ),[2]; efflux inhibition GF120918,0.7
same,obs–calc (log Po^in situ),[2]; efflux inhibition: PSC833,−0.3
same,log PABL,[7],−4.92
same,log Po,[7],−4.40
same,log Ppara,[7],−6.87
same,Pm^7.4,[7],5
same,pKa,[4],9.4
same,PS,[8]; efflux inhibition: PSC833,2 10^−4 mLg^−1s^−1
same,log PS,[8]; efflux inhibition: PSC833,−3.67
same,PS,[9]; efflux inhibition GF120918,22 10^−4 mLg^−1s^−1
same,log PS,[9]; efflux inhibition GF120918,−2.65
same,log Po^in situ (obs),[10]; efflux inhibition GF120918,−4.03
CCCC(CCC)C(=O)O [Valproic Acid],Q (charge class),[1]; [16],−
same,obs–calc (log Po^in situ),[2]; efflux inhibition column: Kd,−0.2
same,obs–calc (log Po^in situ),[2]; efflux inhibition mdr1a(−/−),−0.2
same,PS,[9]; in vivo,93 10^−4 mLg^−1s^−1
same,log PS,[9]; in vivo,−2.03
same,log Po,[11],−3.77
same,log Po^in situ (obs),[10]; efflux inhibition column: Kd,−2.54
O=C(O)c1ccccc1O [Salicylic Acid],Q (charge class),[1]; [16],−
same,obs–calc (log Po^in situ),[2]; no efflux inhibition,0.9
same,log Po,[11],−3.34
CC[C@]1(O)C[C@H]2CN(CCc3c([nH]c4ccccc34)[C@@](C(=O)OC)(c3cc4c(cc3OC)N(C=O)[C@H]3[C@@](O)(C(=O)OC)[C@H](OC(C)=O)[C@]5(CC)C=CCN6CC[C@]43[C@@H]65)C2)C1 [Vincristine],Q (charge class),[1]; [16],0
same,obs–calc (log Po^in situ),[2]; efflux inhibition mdr1a(−/−),−0.1
same,obs–calc (log Po^in situ),[2]; efflux inhibition mrp1(−/−),−0.5
same,log PABL,[7],−4.62
same,log Po,[7],−4.54
same,log Ppara,[7],−7.67
same,Pm^7.4,[7],14
same,PS,[5]; efflux inhibition mrp1(−/−),1 10^−4 mLg^−1s^−1
same,log PS,[5]; efflux inhibition mrp1(−/−),−4.25
same,log Po^in situ (obs),[6]; efflux inhibition mrp1(−/−),−5.95
C=C[C@H]1C[N@@]2CC[C@H]1C[C@@H]2[C@@H](O)c1ccnc2ccc(OC)cc12 [Quinidine],Q (charge class),[1]; [16],+
same,PS,"[8]; rat, in vivo",4 10^−4 mLg^−1s^−1
COc1ccc2c3c1O[C@H]1[C@@H](O)C=C[C@H]4[C@@H](C2)N(C)CC[C@@]341 [Codeine],Q (charge class),[1],+
same,obs–calc (log Po^in situ),[2],−0.2
same,log PABL,[7],−4.69
same,log Po,[7],−3.68
same,log Ppara,[7],−7.16
same,Pm^7.4,[7],27
same,log Po^in situ (obs),[12],−3.80
same,log BB (brain-to-plasma total concentration ratio),[13],0.55
same,PS,[9]; in vivo,33 10^−4 mLg^−1s^−1
same,log PS,[9]; in vivo,−2.48
COc1ccc2c3c1O[C@H]1C[C@@H](O)C=C[C@@]31CCN(C)C2 [Galanthamine],Q (charge class),[1],+
same,obs–calc (log Po^in situ),[2],0.2
same,log PABL,[7],−4.89
same,log Po,[7],−3.41
same,log Ppara,[7],−7.73
same,Pm^7.4,[7],22
same,log Po^in situ (obs),[14],−3.21
same,pKa,[15],8.62
same,log Po^in situ (obs),[12],−3.24
same,log BB (brain-to-plasma total concentration ratio),[13],0.00
same,PS,"[5]; mouse, in vivo",35 10^−4 mLg^−1s^−1
same,log PS,"[5]; mouse, in vivo",−2.46
same,PS,[9]; in vivo,33 10^−4 mLg^−1s^−1
same,log PS,[9]; in vivo,−2.48
COc1cccc2c1C(=O)c1c(O)c3c(c(O)c1C2=O)C[C@@](O)(C(=O)CO)C[C@@H]3O[C@H]1C[C@H](N)[C@H](O)[C@H](C)O1 [Doxorubicin],Q (charge class),[1]; [16],+
same,obs–calc (log Po^in situ),[2]; efflux inhibition mdr1a(−/−),1.7
same,obs–calc (log Po^in situ),[2]; efflux inhibition mrp1(−/−),1.4
same,obs–calc (log Po^in situ),[2]; efflux inhibition verapamil,1.6
same,log PABL,[7],−4.61
same,log Po,[7],−4.23
same,log Ppara,[7],−12
same,Pm^7.4,[7],0.3
same,PS,[5]; efflux inhibition mrp1(−/−),2 10^−4 mLg^−1s^−1
same,log PS,[5]; efflux inhibition mrp1(−/−),−3.66
same,PS,[9]; efflux inhibition verapamil,4 10^−4 mLg^−1s^−1
same,log PS,[9]; efflux inhibition verapamil,−3.44
same,log Po^in situ (obs),[6]; efflux inhibition mrp1(−/−),−3.35
same,log Po^in situ (obs),[10]; efflux inhibition verapamil,−3.14
